Assay [1] has as its target T1, vanilloid receptor 1 (VR1/TRPV1) of the rat species (Rattus norvegicus, UniProt O35433).
T1 construct: The spinal column is removed from beheaded rats; from tissue; host or cells: primary cells from rat dorsal root ganglia (DRGs)
In words: Functional study on vanilloid receptor 1, FLIPR Ca2+ assay in rat dorsal root ganglia cells. The class given is cell-based. Particulars: for VR1 (rat) (% inhibition compared to 10 μM CP) / VR1 (rat) (% stimulation compared to 10 μM CP) / inhibition at 10 µM / activation at 10 µM: test compound 10 μM; for VR1 (rat) (% inhibition compared to 10 μM CP) / inhibition at 10 µM: 5 min incubation, then 100 nM capsaicin, relative to maximum inhibition with 10 μM capsaicin; for VR1 (rat) (% stimulation compared to 10 μM CP) / activation at 10 µM: Ca2+ signal relative to 10 μM capsaicin (CP); for pEC50: unit inferred; for inhibition at 10 µM: read-out: VR1 (rat) (% inhibition compared to 10 μM CP); for activation at 10 µM: read-out: VR1 (rat) (% stimulation compared to 10 μM CP).

In a further assay the target is T2, VR1 (human) (Homo sapiens, UniProt Q8NER1).
T2 construct: expressed in transfected cells; host or cells: CHO K1 cells (ECACC), stably transfected
In words: Functional study on vanilloid receptor (VR1), FLIPR Ca2+ assay in CHO K1 cells stably transfected with the VR1 gene. The note with it: for VR1 (human) (% inhibition compared to 10 μM CP) / VR1 (human) (% stimulation compared to 10 μM CP): test compound 10 μM; for VR1 (human) (% inhibition compared to 10 μM CP) / inhibition at 10 µM: 5 min incubation, then 100 nM capsaicin, compared to 10 μM CP; for VR1 (human) (% stimulation compared to 10 μM CP) / activation at 10 µM: Ca2+ signal relative to 10 μM capsaicin (CP); for pEC50: unit inferred; for inhibition at 10 µM / activation at 10 µM: CHO-K1, test compound 10 μM; for activation at 10 µM: read-out: VR1 (human) (% stimulation compared to 10 μM CP). The format is cell-based.

The structures appear in SMILES notation. pEC50: −log10 of the molar value. Structures can show the parent of a compound that is named as a salt.

T1 sequence (O35433 whole entry): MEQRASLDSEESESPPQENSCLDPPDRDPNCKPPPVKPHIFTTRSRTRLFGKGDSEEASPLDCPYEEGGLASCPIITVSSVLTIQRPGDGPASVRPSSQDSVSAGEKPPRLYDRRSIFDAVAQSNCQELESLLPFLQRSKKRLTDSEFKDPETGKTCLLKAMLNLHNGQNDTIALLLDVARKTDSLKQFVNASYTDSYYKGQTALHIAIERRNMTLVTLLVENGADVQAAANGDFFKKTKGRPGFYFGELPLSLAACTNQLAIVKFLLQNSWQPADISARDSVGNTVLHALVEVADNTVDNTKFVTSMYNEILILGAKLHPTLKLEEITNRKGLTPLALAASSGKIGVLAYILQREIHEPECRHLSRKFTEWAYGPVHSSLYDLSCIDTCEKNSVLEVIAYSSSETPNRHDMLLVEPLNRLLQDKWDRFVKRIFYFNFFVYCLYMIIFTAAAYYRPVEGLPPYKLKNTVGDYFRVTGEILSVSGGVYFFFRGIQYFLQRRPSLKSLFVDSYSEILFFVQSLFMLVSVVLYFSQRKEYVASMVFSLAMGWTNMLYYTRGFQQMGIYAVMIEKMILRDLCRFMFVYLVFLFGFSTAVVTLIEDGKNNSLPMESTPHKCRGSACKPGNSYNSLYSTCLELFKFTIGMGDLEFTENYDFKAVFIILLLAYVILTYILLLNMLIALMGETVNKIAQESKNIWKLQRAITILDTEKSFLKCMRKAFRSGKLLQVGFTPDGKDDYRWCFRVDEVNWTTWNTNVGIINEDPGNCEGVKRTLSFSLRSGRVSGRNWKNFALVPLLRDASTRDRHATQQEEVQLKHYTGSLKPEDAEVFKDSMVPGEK
T2 sequence (Q8NER1 whole entry): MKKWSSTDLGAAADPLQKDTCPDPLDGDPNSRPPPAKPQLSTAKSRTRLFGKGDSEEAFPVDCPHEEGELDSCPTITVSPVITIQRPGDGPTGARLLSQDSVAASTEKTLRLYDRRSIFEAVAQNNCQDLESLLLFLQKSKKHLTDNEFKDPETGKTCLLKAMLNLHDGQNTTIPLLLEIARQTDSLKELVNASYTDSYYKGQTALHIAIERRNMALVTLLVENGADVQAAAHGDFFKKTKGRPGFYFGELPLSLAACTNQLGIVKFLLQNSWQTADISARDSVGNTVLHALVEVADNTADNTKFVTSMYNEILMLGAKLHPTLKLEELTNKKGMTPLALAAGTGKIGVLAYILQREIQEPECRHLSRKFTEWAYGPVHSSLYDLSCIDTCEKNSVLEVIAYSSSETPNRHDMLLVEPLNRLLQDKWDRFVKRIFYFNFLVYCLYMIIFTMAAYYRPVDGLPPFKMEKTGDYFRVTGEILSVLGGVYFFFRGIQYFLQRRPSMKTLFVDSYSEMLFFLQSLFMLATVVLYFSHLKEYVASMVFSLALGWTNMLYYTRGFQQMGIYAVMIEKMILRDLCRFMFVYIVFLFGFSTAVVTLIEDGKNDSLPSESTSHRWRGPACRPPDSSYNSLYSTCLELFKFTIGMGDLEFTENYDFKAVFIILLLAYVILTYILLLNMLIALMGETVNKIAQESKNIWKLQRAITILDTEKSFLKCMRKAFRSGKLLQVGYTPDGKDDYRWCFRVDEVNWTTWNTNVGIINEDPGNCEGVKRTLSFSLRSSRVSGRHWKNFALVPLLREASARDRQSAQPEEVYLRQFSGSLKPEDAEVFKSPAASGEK

As to `Br.O=C1N=C(N2CCSCC2)SC1=CC=Cc1ccccc1` [Example 190, 5-(3-phenylallylidene)-2-thiomorpholin-4-ylthiazol-4-one hydrobromide], in assay [1], the “VR1 (rat) (% inhibition compared to 10 μM CP)” value was determined as 83.13%, the “VR1 (rat) (% stimulation compared to 10 μM CP)” value is given as 51.35% and the pEC50 was 4.85. Besides, on VR1 (human), the “VR1 (human) (% inhibition compared to 10 μM CP)” value was determined as 32.35%, the “VR1 (human) (% stimulation compared to 10 μM CP)” value was determined as 34.09% and the pEC50 is under 4.60.

Regarding `O=C1N=C(N2CCCCC2)SC1=CC=Cc1ccccc1` [Example 191, 5-(3-phenylallylidene)-2-piperidin-1-ylthiazol-4-one hydrobromide], in assay [1], the inhibition at 10 µM was 17.6%, the activation at 10 µM was -0.17% and the negative logarithm of the EC50 (pEC50) is under 4.60. Besides, on VR1 (human), the inhibition at 10 µM came out at 8.04%, the activation at 10 µM amounted to 15.8% and the negative-log EC50 (pEC50) is under 4.30.

As for `O=C1N=C(N2CCCCCC2)SC1=CC=Cc1ccccc1` [Example 192, 2-azepan-1-yl-5-(3-phenylallylidene)thiazol-4-one hydrobromide], in assay [1], the inhibition at 10 µM came out at 2.18%, the activation at 10 µM was 1.34% and the pEC50 was under 4.30. At VR1 (human), the inhibition at 10 µM came out at 10.3%, the activation at 10 µM came out at 16.7% and the pEC50 is under 4.30.

With `O=C1N=C(N2CCSCC2)SC1=Cc1cccc(C(F)(F)F)c1` [Example 195, 2-thiomorpholin-4-yl-5-(3-trifluoromethylbenzylidene)thiazol-4-one hydrobromide], in assay [1], the inhibition at 10 µM is 96.1%, the activation at 10 µM was found to be 94.3% and the negative-log EC50 (pEC50) was 5.66. At VR1 (human), the inhibition at 10 µM is 90.3%, the activation at 10 µM is 80.3% and the pEC50 is 5.23.

With `CC(C)(C)c1ccc(C=C2SC(N3CCOCC3)=NC2=O)cc1` [Example 197, 5-(4-tert-butylbenzylidene)-2-morpholin-4-ylthiazol-4-one], in assay [1], the inhibition at 10 µM was determined as 94.3% and the “VR1 (rat) (% stimulation compared to 10 μM CP)” value was found to be 63.86%. At VR1 (human), the inhibition at 10 µM stood at 72.4% and the activation at 10 µM worked out at 48%.

As for `CC(C)(C)c1ccc(C=C2SC(N3CCSCC3)=NC2=O)cc1` [Example 198, 5-(4-tert-butylbenzylidene)-2-thiomorpholin-4-ylthiazol-4-one hydrobromide], in assay [1], the inhibition at 10 µM came out at 97.6%, the activation at 10 µM was 60.7% and the negative logarithm of the EC50 (pEC50) is 5.95. At VR1 (human), the inhibition at 10 µM came out at 76.7%, the activation at 10 µM amounted to 54.3% and the pEC50 was 5.99.

`CC(C)(C)c1ccc(C=C2SC(N3CCCC3)=NC2=O)cc1` [Example 199, 5-(4-tert-butylbenzylidene)-2-pyrrolidin-1-ylthiazol-4-one hydrobromide]: in assay [1], the inhibition at 10 µM amounted to 69.5% and the activation at 10 µM turned out to be 42.9%. In addition, at VR1 (human), the inhibition at 10 µM worked out at 4.43% and the activation at 10 µM was determined as 9.64%.

On to `CC(C)(C)c1ccc(C=C2SC(N3CCCCCC3)=NC2=O)cc1` [Example 200, 2-azepan-1-yl-5-(4-tert-butylbenzylidene)thiazol-4-one hydrobromide], for which, in assay [1], the inhibition at 10 µM amounted to 46.2%, the activation at 10 µM was 31.4% and the pEC50 is under 4.60. For the same molecule, at VR1 (human), the inhibition at 10 µM was 2.12%, the activation at 10 µM came to 17.5% and the negative logarithm of the EC50 (pEC50) was under 4.60.

Turning to `O=C1N=C(N2CCOCC2)SC1=Cc1cccc(C(F)(F)F)c1` [Example 205, 2-morpholin-4-yl-5-(3-trifluoromethylbenzylidene)thiazol-4-one hydrobromide], in assay [1], the inhibition at 10 µM is 96.4% and the activation at 10 µM was 79.6%. In addition, at VR1 (human), the inhibition at 10 µM came to 103% and the activation at 10 µM came out at 68.2%.

As for `O=C1N=C(N2CCOCC2)SC1=Cc1cccc(C(F)(F)F)c1` [Example 206, 2-morpholin-4-yl-5-(3-trifluoromethylbenzylidene)thiazol-4-one], in assay [1], the “VR1 (rat) (% inhibition compared to 10 μM CP)” value is 102.30% and the “VR1 (rat) (% stimulation compared to 10 μM CP)” value is given as 76.51%. At VR1 (human), the “VR1 (human) (% inhibition compared to 10 μM CP)” value amounted to 95.06% and the “VR1 (human) (% stimulation compared to 10 μM CP)” value came to 77.26%.

Consider `O=C1N=C(N2CCOCC2)SC1=Cc1cccc2ccccc12` [Example 209, 2-morpholin-4-yl-5-naphthalen-1-ylmethylenethiazol-4-one], for which, in assay [1], the inhibition at 10 µM amounted to 34.7%, the activation at 10 µM worked out at 40% and the pEC50 was 4.83. Further, on VR1 (human), the inhibition at 10 µM turned out to be 5.47%, the activation at 10 µM was 9.44% and the negative-log EC50 (pEC50) is 4.55.

Regarding `O=C1N=C(N2CCOCC2)SC1=Cc1ccccn1` [Example 210, 2-morpholin-4-yl-5-pyridin-2-ylmethylenethiazol-4-one], the inhibition at 10 µM in assay [1] came to 23%; against VR1 (human) it was 3.03%. In addition, the activation at 10 µM in assay [1] was 2.22%; at VR1 (human), 1.83%.

Turning to `CCN(CC)C1=NC(=O)C(=Cc2cccc(C(F)(F)F)c2)S1` [Example 214, 2-diethylamino-5-(3-trifluoromethylbenzylidene)thiazol-4-one], in assay [1], the inhibition at 10 µM amounted to 50.1% and the activation at 10 µM was 13.7%. In addition, at VR1 (human), the inhibition at 10 µM was 56.7% and the activation at 10 µM came to 6.08%.

On to `Cc1ccc(C=C2SC(N3CCCC3)=NC2=O)cc1` [Example 215, 5-(4-methylbenzylidene)-2-pyrrolidin-1-ylthiazol-4-one], for which, in assay [1], the inhibition at 10 µM turned out to be 4.47% and the activation at 10 µM is 2.14%. Moreover, on VR1 (human), the inhibition at 10 µM stood at 49.8% and the activation at 10 µM was determined as 3.64%.

Regarding `COCCNC1=NC(=O)C(=Cc2ccc(C(C)(C)C)cc2)S1` [Example 216, 5-(4-tert-butylbenzylidene)-2-(2-methoxyethylamino)thiazol-4-one hydrobromide], in assay [1], the inhibition at 10 µM came out at 22.1%, the activation at 10 µM came to 1.24% and the pEC50 was 5.82. At VR1 (human), the inhibition at 10 µM was found to be 51.1%, the activation at 10 µM was found to be 2.08% and the negative-log EC50 (pEC50) was 5.27.

As for `Cc1ccc(C=C2SC(N3CCOCC3)=NC2=O)cc1` [Example 218, 5-(4-methylbenzylidene)-2-morpholin-4-ylthiazol-4-one], in assay [1], the “VR1 (rat) (% inhibition compared to 10 μM CP)” value was 78.83% and the “VR1 (rat) (% stimulation compared to 10 μM CP)” value is 55.76%. On VR1 (human), the “VR1 (human) (% inhibition compared to 10 μM CP)” value came to 12.88% and the “VR1 (human) (% stimulation compared to 10 μM CP)” value is on record as 17.91%.

With `CC(C)(C)c1ccc(C=C2SC(N3CCOCC3)=NC2=O)cc1` [Example 222, 5-(4-tert-butylbenzylidene)-2-morpholin-4-ylthiazol-4-one], in assay [1], the “VR1 (rat) (% inhibition compared to 10 μM CP)” value is reported as 98.64% and the “VR1 (rat) (% stimulation compared to 10 μM CP)” value was 102.46%. Moreover, at VR1 (human), the “VR1 (human) (% inhibition compared to 10 μM CP)” value turned out to be 79.67% and the “VR1 (human) (% stimulation compared to 10 μM CP)” value worked out at 41.92%.

`CCN(CC)c1ccc(C=C2SC(N3CCOCC3)=NC2=O)cc1` [Example 223, 5-(4-diethylaminobenzylidene)-2-morpholin-4-ylthiazol-4-one]: in assay [1], the inhibition at 10 µM was determined as 9.3% and the activation at 10 µM stood at 102%. Besides, on VR1 (human), the inhibition at 10 µM worked out at 57.7% and the activation at 10 µM was found to be 70.5%.

As for `COc1ccc(C=C2SC(N3CCOCC3)=NC2=O)cc1` [Example 228, 5-(4-methoxybenzylidene)-2-morpholin-4-ylthiazol-4-one], in assay [1], the inhibition at 10 µM stood at 4.84%, the activation at 10 µM worked out at 16% and the negative-log EC50 (pEC50) was 4.84. Besides, on VR1 (human), the inhibition at 10 µM is 0.61%, the activation at 10 µM stood at 12.2% and the negative-log EC50 (pEC50) is 4.58.

As to `O=C1N=C(N2CCOCC2)SC1=Cc1ccc(Br)cc1` [Example 232, 5-(4-bromobenzylidene)-2-morpholin-4-ylthiazol-4-one], the inhibition at 10 µM in assay [1] amounted to 96.2%; against VR1 (human), 43.8%. Besides, the activation at 10 µM in assay [1] was found to be 80.4%; at VR1 (human) it was 29.2%.

With `O=C1N=C(N2CCOCC2)SC1=Cc1ccc(OS(=O)(=O)c2ccccc2)cc1` [Example 234, benzenesulfonic acid 4-(2-morpholin-4-yl-4-oxo-4H-thiazol-5-ylidenemethyl)phenyl ester], the inhibition at 10 µM came to 98.1% in assay [1] and 27.8% on VR1 (human). Further, the activation at 10 µM was 57.9% in assay [1] and 46.1% on VR1 (human).

`CN(C)c1ccc(C=C2SC(N3CCOCC3)=NC2=O)cc1` [Example 235, 5-(4-dimethylaminobenzylidene)-2-morpholin-4-ylthiazol-4-one]: in assay [1], the inhibition at 10 µM came to 13.7% and the activation at 10 µM came out at 123%. In addition, on VR1 (human), the inhibition at 10 µM was found to be 44.5% and the activation at 10 µM was 73.9%.

Broadly, the pEC50 is the negative decadic logarithm of the EC50, by convention in mol/L. A word on the inhibition: it is the relative decrease from the control value, in per cent.

For the origin of these results see patent publication US20090215758A1, “Use of 2,5-Disubstituted Thiazol-4-One Derivatives in Drugs” (Gruenenthal GmbH, priority 2005, published 2009).
